From US7045343B2, “Sterilization indicator test packs” (3M Innovative Properties Company, priority 1998, dated 2006)

System: Bacillus stearothermophilus spores
Experiment: Spore outgrowth (color change) of indicators after hydrogen peroxide plasma sterilization
Format: cell-based
Details: 1–22 min diffusion
Procedure, shortened: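 Indicators with a TYVEK closure held spores coated with various chemicals and were exposed to hydrogen peroxide plasma at 45–55 °C: 6–7 mg/ml chamber peroxide, diffusing 1–22 min at 6–10 Torr. Enzyme fluorescence was read hourly for 5 h at 60 °C. Growth was scored visually as a purple-to-yellow change after 168 h.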

| Substance | NO. GROWTH POSITIVE 168 HR (Example 7, 50 mg/ml coating) | NO. GROWTH POSITIVE 168 HR (Example 6, 10 mg/ml coating) | NO. GROWTH POSITIVE 168 HR (Example 7, 10 mg/ml coating) | NO. GROWTH POSITIVE 168 HR (Example 9, 5 mg/ml coating) | NO. GROWTH POSITIVE 168 HR (Example 9, 7.5 mg/ml coating) | NO. GROWTH POSITIVE 168 HR (Example 9, 10 mg/ml coating) | NO. GROWTH POSITIVE 168 HR (Example 9, 50 mg/ml coating) | NO. GROWTH POSITIVE 168 HR (Example 9, 100 mg/ml coating) |
| --- | --- | --- | --- | --- | --- | --- | --- | --- |
| Decaglyceryl Monostearate | 59 | – | – | – | – | – | – | – |
| Decaglyceryl Decaoleate | – | 49 | 49 | 35 | 35 | 49 | 21 | 30 |
